Results taken from patent US6689742B1, “NY-ESO-1 peptide derivatives, and uses thereof” (Chancellors, Masters and Scholars of the University of …, priority 2000, dated 2004).

What was measured:
[1] = test system: clonal CTLs; experiment: recognition of peptide-pulsed T2 cells by clonal CTLs, 51Cr release; assay type: cell-based, human; conditions: T2 cells pulsed with varying concentrations of peptide
Method: Varying concentrations of peptide were used to pulse T2 cells. […] The same ^51Cr release assay described supra was used. Prior to testing the CTLs, these were assayed to determine if they each expressed a single T cell receptor.

[2] = biological target: HLA-A*0201 molecules (Homo sapiens, UniProt P04439, D140Y/D185E/D98H/E176V/E277Q/G131W/G231S/I119V/I121R/I166T/I218V/L300P/L318F/N151K/N90K/P208A/P217A/Q86G/Q94H/R138H/R169H/T345S); experiment: functional competition binding assay (inhibition of lysis of SEQ ID NO: 4 pulsed T2 cells by CTL clone LAU 132/2)
[3] = test system: ESO1 specific CTL clone ESO5; experiment: recognition by specific CTLs, 51Cr release from peptide-pulsed T2 cells; assay type: cell-based, human; conditions: for EC50: T2 targets, CTL clone ESO5, lymphocyte:target ratio 30:1, 4 hours, read-out: Peptide ([nM] 50%), concentration giving 50% maximal activity; for Relative antigenic activity: [nM] 50% of SEQ ID NO: 2 divided by [nM] 50% of test peptide
[4] = test system: HLA-A2 restricted NY-ESO-1 specific CTLs (CTL NW38-IVS-1); experiment: 51Cr release cytotoxicity assay, peptide-pulsed T2 cells with CTL NW38-IVS-1; assay type: cell-based, human; conditions: 10 ug/ml peptide, effector/target ratio 90:1, four hours
[5] = test system: NY-ESO-1 specific T cells (tumor infiltrating lymphocytes); experiment: IFN-γ ELISPOT of short term tumor infiltrating lymphocyte culture with T2 cells plus peptide; assay type: cell-based, human; conditions: 1 μM peptide, 2×10^3 cultured cells/well, 5×10^4 T2 cells/well; control cultures 19 spots
Description: Samples of lymph nodes or metastatic lesions were taken from a patient who presented slowly progressive melanoma with recurrent metastases, all of which were localized to the same paravertebral region. […] Further, the patient's serum indicated high titer of anti-NY-ESO-1 antibodies.
The surgically resected lymph nodes or metastatic lesions were finely minced in sterile, RPMI 1640 medium that had been supplemented with 10% fetal calf serum. Suspensions of cells were placed in 24-well tissue culture plates, in 2 ml of Iscove's Dulbecco medium, supplemented with 0.24 mM Asn, 0.55 mM Arg, 1.5 mM Gln, 10% pooled human A+ serum, 100 U/ml IL-2, and 10 ng/ml of IL-7. The cells were cultured for 2-3 weeks, prior to being assayed via IFN-γ ELISPOT, in accordance with Czerkinsky, et al, J. Immunol. Meth 110:29 ([…]), incorporated by reference. In brief, 2×10^3 cells/well of the short term culture referred to supra were combined with either 5×10^4 T2 cells/well, or the same number of T2 cells, plus 1 μM of one of SEQ ID NOS: 1-3. Each culture was run in duplicate.

[6] = test system: SEQ ID NO: 2 specific CTLs; experiment: killing specificity of tetramer-sorted CTLs, 51Cr release; assay type: cell-based, human; conditions: 1 μM peptide, effector/target ratios 1:1 and 0.3:1; unpulsed T2 not killed
Method: These tetramers were then used to stain a sample of cells taken from a patient who had been diagnosed previously as having a NY-ESO-1 positive melanoma. See Dunbar, et al., J. Immunol 162(12):6959-62(1999) and Ser. No. 09/049,850, filed Mar. 27, 1998, incorporated by reference. In brief, however, peripheral blood lymphocyte (“PBL”) samples were stained with tetramers for 15 minutes at 37° C., followed by washing in PBS/1% FCS at 37° C., followed by incubation with a labelled, anti-CD8 antibody for 30 minutes, on ice. The cells were then washed three times, in ice cold PBS/1% FCS, and were then analyzed via flow cytometry.
The CTLs described supra were then tested for killing specificity. […] Killing was determined using the ^51Cr release assay described supra.

[7] = test system: NA8-MEL (A2+, NY-ESO-1-) cells; experiment: 51Cr release assay, CTL ESO5 on A2+ melanoma cell lines with or without peptide; assay type: cell-based, human; conditions: exogenously added peptide; not lysed when absent
Method: Cell lines NA8-MEL (A2^+, NY-ESO-1^−), SK-MEL37 (A2^+, NY-ESO-1^+), and Me 275 (A2^+, NY-ESO-1^+) were tested, in ^51Cr release assays, as described supra.

[8] = test system: CTLs; experiment: 51Cr release assay in presence of reducing agent (DTT or TCEP); assay type: cell-based, human; conditions: 200 μM DTT or TCEP
[9] = test system: NY-ESO-1 157-165 specific CTLs; experiment: CTL assays of modified peptides; assay type: cell-based, human
Method: All of these peptides were tested in CTL assays of the type described supra.

EC50 [3] [nM]	Substance	recognition by all T cells (clonal CTLs) [1]	stimulation of HLA-A2 restricted NY-ESO-1 specific CTLs (51Cr release) [4]	other results
50	QLSLLMWIT [SEQ ID NO: 3, natural NY-ESO-1 peptide]	recognized	three best stimulators	fold less efficient competitor than SEQ ID NO: 4 [2]: 100 fold; Relative antigenic activity [3]: 0.012
50	SLLMWITQCFL [SEQ ID NO: 1, natural NY-ESO-1 peptide]	failed to recognize	three best stimulators	mean number of spots (IFN-γ ELISPOT) [5]: 396 spots; Relative antigenic activity [3]: 0.012
	SLLMWITQCF (listed as Homo sapiens) [SEQ ID NO: 11]	recognized		
0.6	SLLMWITQC [SEQ ID NO: 2, natural NY-ESO-1 peptide, parental peptide]	recognized	three best stimulators	killing of peptide-pulsed T2 cells by CTLs [6]: killed; lysis of NA8-MEL by CTL ESO5 when peptide added [7]: lysed; mean number of spots (IFN-γ ELISPOT) [5]: 424 spots; recognition by CTL, in words ([3]; CTL clone ESO5, compared with parental peptide SEQ ID NO: 2): optimally recognized antigenic peptide; increase of antigenicity in the presence of reducing agent [8]: 10 fold
	SLLMWITQI (Mutagen 9 Synthesized. At position 9, of SEQ ID NO2,Cys is replaced by Ile) [SEQ ID NO: 12]			increase of recognition by NY-ESO-1 157-165 specific CTLs as compared to SEQ ID NO: 2 [9]: about 1000 fold
0.01	SLLMWITQL [SEQ ID NO: 7]			increase of recognition by NY-ESO-1 157-165 specific CTLs as compared to SEQ ID NO: 2 [9]: about 1000 fold
	SLLMWITQCI (Mutagen 10 Synthesized. At position 10 of SEQ ID NO 11, Phe is replaced by Ile) [SEQ ID NO: 14]			recognition compared to SEQ ID NO: 2, in words [9]: recognized more efficiently
	157-164: a peptide consisting of the first 8 amino acids of SEQ ID NO: 11 (SLLMWITQ; listed as Homo sapiens)	failed to recognize		
